Assay results from patent US12622872B2, “Process for the preparation of sterile ophthalmic aqueous fluticasone propionate form a nanocrystals suspensions” (Nicox Ophthalmics, Inc., priority 2019, dated 2026).

Legend:
[1] = In vitro dissolution test (compartment diffusion through dialysis membrane, sink condition); assay type: physicochemical
Method: Dissolution profiles of nanocrystals of Fluticasone propionate form A of two nanosuspensions of the invention and of Fluticasone propionate form 1 micronized were performed using a dissolution method.
The study was performed using a compartment diffusion analysis through a dialysis membrane and sink condition. The sink condition was achieved through the use of a receptor fluid containing 30 mM phosphate buffer, pH 7.4 with 5% HPβCD cyclodextrins and also by a complete replacement of the buffer every 24 hours to stay below the saturation point. The saturation point was estimated to be 5 μg/g under those experimental conditions and the measurements performed as well as the buffer replacement have shown a maximum concentration of 1.5 μg/g. The study was conducted at a temperature of 37° C. The details of the dissolution test method are provided below:
A 5-fold dilution with the formulation vehicle (placebo solution containing all the formulation excipients including the surfactants) of two 0.1% w/w Fluticasone propionate form A nanosuspensions was conducted to obtain a final concentration of 0.02% w/w Fluticasone propionate inside the dialysis device.
Fluticasone propionate form 1 micronized was suspended in the same phosphate buffer used in the receiving compartment of the dialysis system.
Fluticasone propionate release was carried at 1-2 RPM. […]
These aliquots were immediately centrifuged and the measurements were performed by HPLC

[2] = 14-day repeated dose study, plasma toxicokinetics; parameters: species or system Beagle dogs; conditions: dog, in vivo
Text: The purpose of this study was to evaluate the toxicokinetic of fluticasone propionate Form A nanosuspensions of the invention (see Table 10 below) administered via topical application directly to the rim (margin) of upper and lower eyelids of both eyes of Beagle dogs.
Fifty naïve Beagle dogs (25 males and 25 females), approximately 5-6 months old and weighing 5.7 to 8.8 kg for males and females at the outset of the study were assigned to treatment groups (groups 1-4) and to vehicle group.
Male and female Beagle dogs were dosed with fluticasone propionate at 1.6, 9.6, and 32 μg/day (bilateral QD topical application) or at 64 μg/day (bilateral BID topical application) via eye lid applicator directly to the upper and lower eyelids of both eyes once or twice daily (minimum of 6 hours between doses) for 14 consecutive days.
Blood for toxicokinetic evaluation was collected from all animals at selected time points on Days 1 and 14.

[3] = 1 h, second nanosuspension (Table 8)
[4] = 3 h, second nanosuspension (Table 8)
[5] = 5 h, second nanosuspension (Table 8)
[6] = 19 h, second nanosuspension (Table 8)

% Dissolution Average % ([1]; 1 h) [%]	% Dissolution Tube #1 ([1]; 1 h) [%]	% Dissolution Tube #2 ([1]; 1 h) [%]	% Dissolution Tube #3 ([1]; 1 h) [%]	% Dissolution Average % ([1]; 3 h) [%]	% Dissolution Tube #1 ([1]; 3 h) [%]	% Dissolution Tube #2 ([1]; 3 h) [%]	% Dissolution Tube #3 ([1]; 3 h) [%]	% Dissolution Average % ([1]; 5 h) [%]	% Dissolution Tube #1 ([1]; 5 h) [%]	% Dissolution Tube #2 ([1]; 5 h) [%]	% Dissolution Tube #3 ([1]; 5 h) [%]	SMILES	further results
–	–	–	–	–	–	–	–	–	–	–	–	CCC(=O)O[C@]1(C(=O)SCF)[C@H](C)C[C@H]2[C@@H]3C[C@H](F)C4=CC(=O)C=C[C@]4(C)[C@@]3(F)[C@@H](O)C[C@@]21C [Fluticasone Propionate, fluticasone propionate]	maximum concentration in the receptor fluid ([1]; receptor fluid 30 mM phosphate buffer, pH 7.4 with 5% HPβCD, 37° C.): 1.5 µg/g; Dose dependence of exposure [2]: dose-dependent; Gender-related differences in exposure [2]: no discernable gender-related differences
0.0	0.0	0.0	0.0	0.8	0.2	1.4	0.7	2.2	1.3	2.8	2.4	CCC(=O)O[C@]1(C(=O)SCF)[C@H](C)C[C@H]2[C@@H]3C[C@H](F)C4=CC(=O)C=C[C@]4(C)[C@@]3(F)[C@@H](O)C[C@@]21C [Fluticasone propionate form A nanocrystals]	% Dissolution Average % [1, 3]: 0.0%; % Dissolution Tube #1 [1, 3]: 0.0%; % Dissolution Tube #2 [1, 3]: 0.0%; % Dissolution Tube #3 [1, 3]: 0.0%; % Dissolution Average % [1, 4]: 0.7%; % Dissolution Tube #1 [1, 4]: 0.6%; % Dissolution Tube #2 [1, 4]: 0.5%; % Dissolution Tube #3 [1, 4]: 0.8%; % Dissolution Average % [1, 5]: 2.3%; % Dissolution Tube #1 [1, 5]: 2.4%; % Dissolution Tube #2 [1, 5]: 2.0%; % Dissolution Tube #3 [1, 5]: 2.6%; % Dissolution Average % [1, 6]: 19.0%; % Dissolution Tube #1 [1, 6]: 19.0%; % Dissolution Tube #2 ([1]; 24 h): 24.0%; % Dissolution Tube #3 ([1]; 72 h): 74.0%; dissolution profile compared with Fluticasone propionate form 1 micronized material ([1]; tables 7-9): similar
0.0	0.0	0.0	0.0	0.7	0.8	0.5	0.9	2.6	2.9	1.9	3.0	CCC(=O)O[C@]1(C(=O)SCF)[C@H](C)C[C@H]2[C@@H]3C[C@H](F)C4=CC(=O)C=C[C@]4(C)[C@@]3(F)[C@@H](O)C[C@@]21C [Micronized Fluticasone propionate form 1, fluticasone propionate]	% Dissolution Tube #2 ([1]; 48 h): 44.0%
